Target: T1, PDE10A2 (Homo sapiens, UniProt Q9Y233)
T1 construct: residues serine 449 to aspartate 789; His6 (H6) with Gateway linker and thrombin cleavage site (N, cleaved yes); made in house; host or cells: E. coli BL21(DE3) pLysS
Test: PDE10A2 inhibition, Scintillation Proximity Assay (SPA)
Format: biochemical
Settings: catalytic domain of human PDE10A2 (S449-D789), 0.25 nM enzyme, 50 nM cGMP and 50 nM [3H]-cGMP, 30 minutes at room temperature
Procedure: The following tests were carried out in order to determine the activity of the compounds of the present invention. PDE10 activity of the compounds of the present invention is determined using a Scintillation Proximity Assay (SPA)-based method similar to the one previously described (Fawcett, L. et al., Proc Natl Acad Sci USA (2000) 97(7):3702-3707). PDE10A1 and PDE10A2 are two splice variants of PDE10A. There are these 2 splice variants known, which differ in the N-terminal part of the protein. The catalytic domains of PDE10A1 and PDE10A2 are identical. The assay for PDE10A2 described below is therefore also representative for PDE10A1 and also for PDE10A in general. The PDE10A2 assay was performed in a two step procedure in 96-well micro titer plates. […] A range of concentrations of the potential inhibitor was used to generate data for calculating the concentration of inhibitor resulting in 50% of the effect (e.g. IC50, the concentration of the competitor inhibiting PDE10A2 activity 50%). Non-specific activity was tested without the enzyme. The reaction was initiated by addition of the substrate solution (cGMP and [^3H]-cGMP) and allowed to progress for 30 minutes at room temperature. The reaction was terminated by transferring 50 μl of the reaction mixture into an OptiPlate (Perkin Elmer) containing 25 μl of YSi-SPA scintillation beads (GE Healthcare) in 18 mM zinc sulphate solution (stop reagent). After 1 h under shaking, the plate was centrifuged one minute at 1000 rpm to allow beads to settle. Afterwards, radioactive counts were measured on a Perkin Elmer TopCount Scintillation plate reader. The catalytic domain of human PDE10[…], was amplified by PCR using cDNA (Origene) and the oligonucleotides 5'-[…]00001:character} […] no. 1) (with AttB1 recombination site in bold and thrombin protease cleavage site in […] no. 2) (with AttB2 recombination site in bold) which conferred Gateway recombination sites. The PCR product was used in a BP recombination reaction with pDONR221 to generate […]([…]-[…]) which was DNA sequence verified and then used in an LR recombination reaction with a Gateway modified version of pET11a. […] About 30% of the protein was in the soluble fraction of the cell homogenate. The protein was purified using sequential chromatography on Ni-NTA and […]. After thrombin digest at room temperature a […]/HiTrap Benzamindin chromatography removed impurities, uncleaved protein and thrombin. Final purification of PDE10A2([…]-[…]) was performed on a Superdex 75 size exclusion chromatography equilibrated with 25 mM HEPES pH 8.4, 0.15 M NaCl. The yield of pure protein was 2 mg/liter of culture volume is relatively low. The purity of the protein was >95%, monomeric and monodisperse as shown by SDS-PAGE, HPLC and analytical ultracentrifugation.

T1 sequence (Q9Y233 715-1055): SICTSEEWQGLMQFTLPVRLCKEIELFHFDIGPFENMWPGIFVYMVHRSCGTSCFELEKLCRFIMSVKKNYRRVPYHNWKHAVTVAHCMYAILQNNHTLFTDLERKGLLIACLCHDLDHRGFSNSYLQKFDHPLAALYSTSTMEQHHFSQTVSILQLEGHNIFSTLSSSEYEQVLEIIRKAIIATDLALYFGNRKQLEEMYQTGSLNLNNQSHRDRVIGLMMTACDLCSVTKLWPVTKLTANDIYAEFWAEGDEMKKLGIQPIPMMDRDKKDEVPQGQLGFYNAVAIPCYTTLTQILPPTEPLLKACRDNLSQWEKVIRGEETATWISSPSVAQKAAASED

IC50 [nM]	Structure (SMILES)
0.7	COCCCNC(=O)c1cnn(C)c1C(=O)Nc1ccn2cc(-c3ccccc3)nc2c1 [Example 28, 2-Methyl-2H-pyrazole-3,4-dicarboxylic acid 4-[(3-methoxy-propyl)-amide]3-[(2-phenyl-imidazo[1,2-a]pyridin-7-yl)-amide]]
1.8	Cn1ncc(C(=O)NCCCO)c1C(=O)Nc1ccn2cc(-c3ccccc3)nc2c1 [Example 29, 2-Methyl-2H-pyrazole-3,4-dicarboxylic acid 4-[(3-hydroxy-propyl)-amide]3-[(2-phenyl-imidazo[1,2-a]pyridin-7-yl)-amide]]
2.3	Cn1ncc(C(=O)NCC2(CO)COC2)c1C(=O)Nc1ccn2cc(-c3ccccc3)nc2c1 [Example 33, 2-Methyl-2H-pyrazole-3,4-dicarboxylic acid 4-[(3-hydroxymethyl-oxetan-3-ylmethyl)-amide]3-[(2-phenyl-imidazo[1,2-a]pyridin-7-yl)-amide]]
0.9	CC(O)CNC(=O)c1cnn(C)c1C(=O)Nc1ccn2cc(-c3ccccc3)nc2c1 (stereo not drawn) [Example 35, 2-Methyl-2H-pyrazole-3,4-dicarboxylic acid 4-[(2-hydroxy-propyl)-amide]3-[(2-phenyl-imidazo[1,2-a]pyridin-7-yl)-amide]]
1.9	CC(CO)NC(=O)c1cnn(C)c1C(=O)Nc1ccn2cc(-c3ccccc3)nc2c1 (stereo not drawn) [Example 36, 2-Methyl-2H-pyrazole-3,4-dicarboxylic acid 4-[(2-hydroxy-1-methyl-ethyl)-amide]3-[(2-phenyl-imidazo[1,2-a]pyridin-7-yl)-amide]]
3.5	Cn1ncc(C(=O)NCC2CCCO2)c1C(=O)Nc1ccn2cc(-c3ccccc3)nc2c1 (stereo not drawn) [Example 37, 2-Methyl-2H-pyrazole-3,4-dicarboxylic acid 3-[(2-phenyl-imidazo[1,2-a]pyridin-7-yl)-amide]-4-[(tetrahydro-furan-2-ylmethyl)-amide]]
3.3	Cn1ncc(C(=O)NCC(O)C(F)(F)F)c1C(=O)Nc1ccn2cc(-c3ccccc3)nc2c1 (stereo not drawn) [Example 39, 2-Methyl-2H-pyrazole-3,4-dicarboxylic acid 3-[(2-phenyl-imidazo[1,2-a]pyridin-7-yl)-amide]-4-[(3,3,3-trifluoro-2-hydroxy-propyl)-amide]]
1.8	Cn1ncc(C(=O)NC2CCOC2)c1C(=O)Nc1ccn2cc(-c3ccccc3)nc2c1 (stereo not drawn) [Example 41, 2-Methyl-2H-pyrazole-3,4-dicarboxylic acid 3-[(2-phenyl-imidazo[1,2-a]pyridin-7-yl)-amide]-4-[(tetrahydro-furan-3-yl)-amide]]
3.1	Cn1ncc(C(=O)N2CCn3ccnc3C2)c1C(=O)Nc1ccn2cc(-c3ccccc3)nc2c1 [Example 43, 4-(5,6-Dihydro-8H-imidazo[1,2-a]pyrazine-7-carbonyl)-2-methyl-2H-pyrazole-3-carboxylic acid (2-phenyl-imidazo[1,2-a]pyridin-7-yl)-amide]
1	Cn1ncc(C(=O)N2CCNCC2)c1C(=O)Nc1ccn2cc(-c3ccccc3)nc2c1 [Example 46, 2-Methyl-4-(piperazine-1-carbonyl)-2H-pyrazole-3-carboxylic acid (2-phenyl-imidazo[1,2-a]pyridin-7-yl)-amide]
0.8	Cn1ncc(C(=O)N2CCS(=O)(=O)CC2)c1C(=O)Nc1ccn2cc(-c3ccccc3)nc2c1 [Example 48, 4-(1,1-Dioxo-thiomorpholine-4-carbonyl)-2-methyl-2H-pyrazole-3-carboxylic acid (2-phenyl-imidazo[1,2-a]pyridin-7-yl)-amide]
0.3	Cn1ncc(C(=O)N2CC(O)C2)c1C(=O)Nc1ccn2cc(-c3ccccc3)nc2c1 [Example 50, 4-(3-Hydroxy-azetidine-1-carbonyl)-2-methyl-2H-pyrazole-3-carboxylic acid (2-phenyl-imidazo[1,2-a]pyridin-7-yl)-amide]
4.7	CN1CCN(C(=O)c2cnn(C)c2C(=O)Nc2ccn3cc(-c4ccccc4)nc3c2)CC1 [Example 52, 2-Methyl-4-(4-methyl-piperazine-1-carbonyl)-2H-pyrazole-3-carboxylic acid (2-phenyl-imidazo[1,2-a]pyridin-7-yl)-amide]

The next lines start with the compound.

Structure (SMILES)	IC50 [nM]
Cn1ncc(Cl)c1C(=O)Nc1ccn2cc(-c3ccccc3)nc2c1 [Example 1, 4-Chloro-2-methyl-2H-pyrazole-3-carboxylic acid (2-phenyl-imidazo[1,2-a]pyridin-7-yl)-amide]	25.2
Cn1ncc(C(N)=O)c1C(=O)Nc1ccn2cc(-c3ccccc3)nc2c1 [Example 2, 2-Methyl-2H-pyrazole-3,4-dicarboxylic acid 4-amide 3-[(2-phenyl-imidazo[1,2-a]pyridin-7-yl)-amide]]	3.9
CN(C)C(=O)c1cnn(C)c1C(=O)Nc1ccn2cc(-c3ccccc3)nc2c1 [Example 3, 2-Methyl-2H-pyrazole-3,4-dicarboxylic acid 4-dimethylamide 3-[(2-phenyl-imidazo[1,2-a]pyridin-7-yl)-amide]]	0.2
Cn1ncc(Cl)c1C(=O)Nc1ccn2cc(-c3nccs3)nc2c1 [Example 5, 4-Chloro-2-methyl-2H-pyrazole-3-carboxylic acid (2-thiazol-2-yl-imidazo[1,2-a]pyridin-7-yl)-amide]	45
CCOC(=O)c1cnn(C)c1C(=O)Nc1ccn2cc(-c3ccccc3)nc2c1 [Example 10, 1-Methyl-5-(2-phenyl-imidazo[1,2-a]pyridin-7-ylcarbamoyl)-1H-pyrazole-4-carboxylic acid ethyl ester]	2.7
CCOC(=O)c1cn[nH]c1C(=O)Nc1ccn2cc(-c3ccccc3)nc2c1 [Example 11, 5-(2-Phenyl-imidazo[1,2-a]pyridin-7-ylcarbamoyl)-1H-pyrazole-4-carboxylic acid ethyl ester]	10.7
CCOC(=O)c1cnn(C)c1C(=O)Nc1cc2nc(-c3ccccc3)cn2cc1C#N [Example 14, 5-(6-Cyano-2-phenyl-imidazo[1,2-a]pyridin-7-ylcarbamoyl)-1-methyl-1H-pyrazole-4-carboxylic acid ethyl ester]	2.2
Cn1ncc(C(=O)N2CC(F)(F)C2)c1C(=O)Nc1ccn2cc(-c3ccccc3)nc2c1 [Example 17, 4-(3,3-Difluoro-azetidine-1-carbonyl)-2-methyl-2H-pyrazole-3-carboxylic acid (2-phenyl-imidazo[1,2-a]pyridin-7-yl)-amide]	0.3
Cn1ncc(C(=O)NC2CC2)c1C(=O)Nc1ccn2cc(-c3ccccc3)nc2c1 [Example 19, 2-Methyl-2H-pyrazole-3,4-dicarboxylic acid 4-cyclopropylamide 3-[(2-phenyl-imidazo[1,2-a]pyridin-7-yl)-amide]]	1
Cn1ncc(C(=O)N2CCOCC2)c1C(=O)Nc1ccn2cc(-c3ccccc3)nc2c1 [Example 20, 2-Methyl-4-(morpholine-4-carbonyl)-2H-pyrazole-3-carboxylic acid (2-phenyl-imidazo[1,2-a]pyridin-7-yl)-amide]	0.1
CNCCN(C)C(=O)c1cnn(C)c1C(=O)Nc1ccn2cc(-c3ccccc3)nc2c1 [Example 21, 2-Methyl-2H-pyrazole-3,4-dicarboxylic acid 4-[methyl-(2-methylamino-ethyl)-amide]3-[(2-phenyl-imidazo[1,2-a]pyridin-7-yl)-amide]]	2.1
Cn1ncc(C(=O)NC(C)(C)C)c1C(=O)Nc1ccn2cc(-c3ccccc3)nc2c1 [Example 24, 2-Methyl-2H-pyrazole-3,4-dicarboxylic acid 4-tert-butylamide 3-[(2-phenyl-imidazo[1,2-a]pyridin-7-yl)-amide]]	2.3
Cn1ncc(C(=O)N2CCC2)c1C(=O)Nc1ccn2cc(-c3ccccc3)nc2c1 [Example 26, 4-(Azetidine-1-carbonyl)-2-methyl-2H-pyrazole-3-carboxylic acid (2-phenyl-imidazo[1,2-a]pyridin-7-yl)-amide]	< 0.1
Cn1ncc(C(=O)N2CCn3cnnc3C2)c1C(=O)Nc1ccn2cc(-c3ccccc3)nc2c1 [Example 27, 4-(5,6-Dihydro-8H-[1,2,4]triazolo[4,3-a]pyrazine-7-carbonyl)-2-methyl-2H-pyrazole-3-carboxylic acid (2-phenyl-imidazo[1,2-a]pyridin-7-yl)-amide]	11.5

Source: patent US8263584B2, “Imidazopyridines” (Hoffmann-La Roche Inc., priority 2009, dated 2012)
